Counter-ions that a name gives are not always drawn.
Target: T1, human serotonin 2A receptors (5-HT2AR) (Homo sapiens, UniProt P28223)
T1 construct: expressed in transfected cells; host or cells: HEK 293 cells
Test: IP1 accumulation assay (HTRF)
Type: cell-based
Design: key to h5-HT2A EC50: A=<100; B=100 to 1000; C=>1000 to 10000; D=>10000; E=inactive
Details: HEK 293 cells expressing human 5-HT2AR; for Emax: HEK293, IP1 production, relative to 5-HT, read-out: h5-HT2A Emax; for h5-HT2A EC50 / EC50: IP1 production (proxy for Gq activation); for EC50: read-out: h5-HT2A EC50
Protocol: The functional activity of disclosed compounds is measured using an IP1 (inositol monophosphate) accumulation assay. The effects of disclosed compounds on IP1 production (a proxy for Gq activation) was measured in HEK 293 cells expressing human serotonin 2A receptors (5-HT2AR) using a Homogeneous Time Resolved Fluorescence (HTRF) assay. Standard protocols are followed. Briefly, a cell suspension and test compound/s is incubated in a standard buffer. Following incubation, the cells are lysed, and the fluorescence acceptor and donor are added. After incubation the fluorescence transfer is measured, and data is analyzed using GraphPad Prism to generate concentration response curves.

T1 sequence (P28223 whole entry): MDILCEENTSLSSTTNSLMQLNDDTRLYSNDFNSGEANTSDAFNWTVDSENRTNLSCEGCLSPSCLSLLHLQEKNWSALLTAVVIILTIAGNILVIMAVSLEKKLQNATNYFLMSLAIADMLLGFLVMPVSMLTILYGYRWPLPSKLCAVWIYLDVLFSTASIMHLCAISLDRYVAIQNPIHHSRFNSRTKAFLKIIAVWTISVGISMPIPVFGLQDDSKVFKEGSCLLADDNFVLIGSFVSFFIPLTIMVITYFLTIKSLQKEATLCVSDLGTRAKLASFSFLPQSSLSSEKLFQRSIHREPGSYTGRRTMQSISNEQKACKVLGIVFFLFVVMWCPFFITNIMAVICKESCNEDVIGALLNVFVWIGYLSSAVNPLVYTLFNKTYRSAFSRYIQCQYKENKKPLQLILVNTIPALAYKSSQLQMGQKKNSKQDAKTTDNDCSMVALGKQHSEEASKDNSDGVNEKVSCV

SMILES	Emax [%]	h5-HT2A EC50	EC50 [µM]
CC1C=C(c2c[nH]c3ncccc23)CN(CC(C)(F)F)C1 (single isomer, unassigned) [103 Isomer 1]	< 50	E	–
CC1C=C(c2c[nH]c3ncccc23)CN(CC(C)(F)F)C1 (single isomer, unassigned) [103 Isomer 2]	–	E	–
CC1C=C(c2c[nH]c3ncccc23)CN(CC(F)(F)C(F)(F)F)C1 (single isomer, unassigned) [105 Isomer 1]	–	E	–
CC1C=C(c2c[nH]c3ncccc23)CN(CC(F)(F)C(F)(F)F)C1 (single isomer, unassigned) [105 Isomer 2]	< 50	E	–
FC(F)(F)C1C=C(c2c[nH]c3ncccc23)CNC1 (stereo not drawn) [Compound 101, 3-(5-(trifluoromethyl)-1,2,5,6-tetrahydropyridin-3-yl)-1H-pyrrolo[2,3-b]pyridine]	75 to 90	–	1 to 10
CN1CC(c2c[nH]c3ncccc23)=CC(C(F)(F)F)C1 (stereo not drawn) [Compound 102, 3-(1-methyl-5-(trifluoromethyl)-1,2,5,6-tetrahydropyridin-3-yl)-1H-pyrrolo[2,3-b]pyridine]	–	–	> 10
CN1CCC2CC2(c2c[nH]c3ncccc23)C1 (stereo not drawn) [Compound 106, 3-(3-methyl-3-azabicyclo[4.1.0]heptan-1-yl)-1H-pyrrolo[2,3-b]pyridine]	–	–	> 10
CC1(C)C=C(c2c[nH]c3ncccc23)CNC1 [Compound 107, 3-(5,5-dimethyl-1,2,5,6-tetrahydropyridin-3-yl)-1H-pyrrolo[2,3-b]pyridine hydrochloride]	–	–	> 10
CN1CC(c2c[nH]c3ncccc23)=CC(C)(C)C1 [Compound 108, 3-(1,5,5-trimethyl-1,2,5,6-tetrahydropyridin-3-yl)-1H-pyrrolo[2,3-b]pyridine hydrochloride]	–	–	> 10
N#CC1C=C(c2c[nH]c3ncccc23)CNC1 (stereo not drawn) [Compound 132, 5-(1H-pyrrolo[2,3-b]pyridin-3-yl)-1,2,3,6-tetrahydropyridine-3-carbonitrile]	–	–	> 10
C1=C(c2c[nH]c3ncccc23)C2CC1CN2 (stereo not drawn) [Compound 134]	< 50	E	–
CN1C2CC=C(c3c[nH]c4ncccc34)C1CC2 (stereo not drawn) [Compound 141, 3-(8-methyl-8-azabicyclo[3.2.1]oct-2-en-2-yl)-1H-pyrrolo[2,3-b]pyridine]	–	–	> 10
CCN1CC(c2c[nH]c3ncccc23)=CC2(CC2)C1 [Compound 144, 3-(5-ethyl-5-azaspiro[2.5]oct-7-en-7-yl)-1H-pyrrolo[2,3-b]pyridine]	75 to 90	–	1 to 10
C1=C(c2c[nH]c3ncccc23)CNCC12CCC2 [Compound 145, 3-(6-azaspiro[3.5]non-8-en-8-yl)-1H-pyrrolo[2,3-b]pyridine]	< 50	–	1 to 10
CN1CC(c2c[nH]c3ncccc23)=CC2(CCC2)C1 [Compound 146, 3-(6-methyl-6-azaspiro[3.5]non-8-en-8-yl)-1H-pyrrolo[2,3-b]pyridine dihydrochloride]	50 to 75	–	0.1 to 1
C1=C(c2c[nH]c3ncccc23)C2(CC2)NCC1 [Compound 147, 3-(4-azaspiro[2.5]oct-7-en-8-yl)-1H-pyrrolo[2,3-b]pyridine hydrochloride]	> 90	–	1 to 10
CC1(C)CC=C(c2c[nH]c3ncccc23)CN1 [Compound 148, 3-(6,6-dimethyl-1,2,5,6-tetrahydropyridin-3-yl)-1H-pyrrolo[2,3-b]pyridine hydrochloride]	< 50	E	–
CC1(C)NCCC=C1c1c[nH]c2ncccc12 [Compound 149, 3-(2,2-dimethyl-1,2,5,6-tetrahydropyridin-3-yl)-1H-pyrrolo[2,3-b]pyridine]	< 50	E	–
C1=C(c2nsc3ccccc23)CNCC1 [Compound 160, 3-(1,2,5,6-tetrahydropyridin-3-yl)benzo[d]isothiazole]	> 90	–	< 0.1

Source: patent US12486268B2 (TRANSNEURAL THERAPEUTICS, INC., priority 2022, dated 2025)
